Key:
solid tumors = assay: Antitumor activity, overall response by RECIST v1.1; type: in vivo, human; details: for Partial response rate: across all treatment cycles
[1] = tested on: advanced solid malignancies; details: US study, patients with ALK-positive tumors, especially NSCLC; cited from earlier work
[2] = Plasma and urine pharmacokinetics of ASP3026; type: in vivo, human; details: for Tmax: human, plasma, oral
[3] = tested on: Japanese patients with solid tumors; type: in vivo, human
[4] = Japanese patients, oral once daily

For COc1cc(N2CCC(N3CCN(C)CC3)CC2)ccc1Nc1ncnc(Nc2ccccc2S(=O)(=O)C(C)C)n1 [ASP3026], the Partial response (solid tumors; Cycle 1, 200 mg daily, escalation (n = 3) and expansion (n = 6) cohorts) was “none of the patients”, the “Patients with stable disease” value (solid tumors; Cycle 1, 200 mg daily, escalation cohort (n = 3)) was “three” and the “Patients with stable disease” value (solid tumors; Cycle 1, 200 mg daily, expansion cohort (n = 6)) was “three”. The Partial response rate (solid tumors; 75-mg dose group (1/3)) was 33.3%, the Partial response rate (solid tumors; 125-mg dose group (1/4)) was 25.0% and the “Patients achieving partial response (PR)” value [1] was “Half of the patients”. The “Dose dependence of median Cmax and AUC24h” value ([2]; 25 mg to 325 mg, Day 1 and Day 28, escalation cohort) was “increased in a dose-dependent manner”, the Tmax ([2]; Mean tmax across the dose groups, Day 1) was 2.12 to 4.52 h and the Tmax ([2]; Mean tmax across the dose groups, Day 28) was 2.48 to 3.75 h. It also gave a Tmax ([2]; Median tmax across the dose groups, Day 1) of 1.97 to 3.97 h, a Tmax ([2]; Median tmax across the dose groups, Day 28) of 2.48 to 3 h and a Steady state achieved ([2]; once daily oral dosing) of at most 8 days. The “Patients with dose-limiting toxicity (DLT)” value ([3]; 325 mg daily, Cycle 1, six patients evaluated) was “Three”, the “Maximum tolerated dose (MTD)” value [3, 4] was 200 mg and the “Recommended phase II dose (RP2D)” value [3, 4] was 200 mg. The “Total incidence of Grade 4 TEAEs” value ([3]; all cohorts (1/29)) was 3.4%, the “Total incidence of Grade 5 TEAEs” value ([3]; all cohorts (1/29)) was 3.4% and the “Patients reporting eye disorders” value ([3]; all cohorts (4/29)) was 13.8%. For the same compound, the “Total incidence of Grade 1 TEAEs” value ([3]; all cohorts (6/29)) was 20.7%, the “Total incidence of Grade 2 TEAEs” value ([3]; all cohorts (8/29)) was 27.6% and the “Total incidence of Grade 3 TEAEs” value ([3]; all cohorts (13/29)) was 44.8%. For the same compound, the “Overall incidence of drug-related AEs” value ([3]; all cohorts (24/29)) was 82.8%, the “Incidence of TEAEs” value ([3]; all treatment groups (29/29)) was 100% and the “Dose-limiting toxicity (DLT)” value ([3]; daily dose from 25 mg to 200 mg, Cycle 1) was “No DLT was observed”.

Reference: publication PMC7937589 (Drugs in R&D, 2020)
